Data on five compounds can be found in patent publication EP0953355A1, “REMEDY FOR AUTOIMMUNE DISEASES” (Sankyo Company, Limited, priority 1996, dated 1997).

Data set [1] has as its system islet β cells. The data set can be described thus: Inhibitory effect on lymphocyte invasion (streptozotocin-induced autoimmunity to islet β cells). In kind it is in vivo, DBA/2 mice. Particulars: for islet cells invaded by lymphocytes in all mice: 0.1% in feed; for Degree of lymphocyte invasion 0 to 40% / Degree of lymphocyte invasion 40 to 60%: percentage of mice within this range, oral, streptozotocin 40 mg/kg i.p. for 5 days. How it is done: Streptozotocin was administered intraperitoneally for 5 days to 8-week-old DBA/2 mice at 40 mg/kg to induce autoimmunity of islet β cells. […] Mice in the control group were given only powdered feed during the same period.
Blood samples were collected from the tail vein before the start, during and on the final day of streptozotocin administration. The blood samples were centrifuged to obtain plasma, and the glucose levels of the obtained plasma were measured with a glucose analyzer (Sino-Test Co., Ltd.). In the figure, glucose levels (mg/dl) are plotted on the vertical axis, while time (days) is plotted on the horizontal axis. [drawing]
The mice used in the experiment were sacrificed following measurement of glucose levels on the final day of pioglitazone administration. The pancreas of each animal was excised and fixed with bouian solution. Thin tissue slices were prepared from the pancreas and the degree of lymphocyte invasion into islet cells was observed by a light microscope. […] Moreover, the degree of lymphocyte invasion was classified as either 0 to 40% or 40 to 60%. The number of mice classified within each range was illustrated in Table 3 as a percentage (%) relative to the total number of mice in the pioglitazone administration group and control groups.
Streptozotocin was administered intraperitoneally for 5 days to 8-week-old DBA/2 mice at 40 mg/kg to induce autoimmunity of islet β cells. […] Control mice were given only powdered feed during the same period.
Blood samples were collected from the tail vein before the start, during and on the final day of streptozotocin administration. The blood samples were centrifuged to obtain plasma, and the glucose levels of the obtained plasma were measured with a glucose analyzer (Sinotest). In the figure, glucose levels (mg/dl) are plotted on the vertical axis, while time (days) is plotted on the horizontal axis. [drawing]
The mice used in the experiment were sacrificed following measurement of glucose levels on the final day of drug administration. The pancreas of each animal was excised and fixed with bouian solution. Thin tissue slices were prepared from the pancreas and the degree of lymphocyte invasion into islet cells was observed by a light microscope. […] Moreover, the degree of lymphocyte invasion of each mouse was classified as either 0 to 40% or 40 to 60%.

For data set [2], the system named is Lewis rats. The data set can be described thus: Inhibitory effect on bone destruction induced by adjuvant arthritis. It is filed as in vivo. As to conditions: for inhibition of bone destruction as compared with the control group / bone destruction compared with the control group: Wilcoxon test; for Bone Destruction Score (points): right hind paw, day 21, maximum score 8, groups of 5; for Bone Destruction Inhibition Rate (%): versus control group. How it is done: The inhibitory effect was determined in a similar manner to that of Winder, et al. (Arthritis Rheum., Vol. 12, p. 472, 1969). Using Lewis rats (females, age 8-10 weeks, body weights: 160-200 g, Japan Charles River) in groups of 5 each, adjuvant (heat-killed Mycobacterium butyricum)was injected intradermally into the right hind paw of each rat at 100 µg/0.05 ml/paw to induce arthritis. The rats were orally administered troglitazone at 0.2%, pioglitazone at 0.05% and BRL-49653 at 0.005%, respectively, by mixing in powdered feed until day 20 taking the day of injection of adjuvant to be day 0. Rats in a control group were given powdered feed only during the same period. The rats were sacrificed on day 21. After excising the right hind paw (the injected paw), soft X-rays were taken of each paw to observe and score the state of bone destruction. Bone destruction was scored by evaluating into 5 ranks consisting of 0, 1, 2, 3 and 4, assigning 0 points in the absence of bone destruction (normal) and increasing scores depending on the state of joint destruction, bone destruction, deformation and osteophyte formation. The worst state of such bone disorders was assigned a score of 4. The bone disorders were scored at two locations, the calcaneus and the location extending from the tarsal bones to the metatarsal bones. Thus, the score for each animal was determined by calculating the total score for the two locations and the maximum score was 8 points.
The inhibitory effect was determined according to the methods of Winder, et al. (Arthritis Rheum., Vol. 12, p. 472, 1969). Using Lewis rats (females, age 8-10 weeks, body weights: 160 to 200 g, Japan Charles River) in groups of 5 each, adjuvant (heat-killed Mycobacterium butyricum)was injected intradermally into the sole of the right hind paw of each rat at 100 µg/0.05 ml/paw to induce arthritis. The rats were orally administered Compound A at 0.1% and Compound B at 0.1%, respectively, by mixing in powdered feed until day 20 taking the day of injection of adjuvant to be day 0. Rats in a control group were given powdered feed only during the same period. The rats were sacrificed on day 21. After excising the right hind paw (the injected paw), soft X-rays were taken of each paw to observe and score the state of bone destruction. Bone destruction was scored by evaluating into 5 ranks consisting of 0, 1, 2, 3 and 4, assigning 0 points in the absence of bone destruction (normal) and increasing scores depending on the state of joint destruction, bone destruction, deformation and osteophyte formation. The worst state of bone destruction was assigned a score of 4. Bone destruction was scored at two locations, the calcaneus and the location extending from the tarsal bones to the metatarsal bones. Thus, the score for each animal was determined by calculating the total score for the two locations and the maximum score was 8 points.

In data set [3] the test system is ddY mice. In kind it is in vivo. Particulars: 300 mg/kg oral, three ddY mice (males), observed for 5 days. How it is done:
Acute toxicity was determined in accordance with conventional methods. […] 2, 3,4 and 10, all acute toxicities of these compounds were determined to be 300 mg/kg and more after oral administration of them.

[4] abbreviates: Example 4, from Fig. 3 (plasma glucose levels) and Table 4.
[5] abbreviates: 0.1% in F2 powdered feed (BRL-49653: 125 mg/kg/day, Compound A: 94 mg/kg/day), 31 days.
Where [6] appears, read: Example 2, in powdered feed until day 20: troglitazone 0.2%, pioglitazone 0.05%, BRL-49653 0.005%.
[7] abbreviates: Example 5, 0.1% in powdered feed until day 20.
The mark [8] stands for this setting: 0.2% in F2 powdered feed (236 mg/kg/day), 38 days.
Setting [9] is: 0.2% in F2 powdered feed (240 mg/kg/day), 38 days.

On to `CN(CCOc1ccc(CC2SC(=O)NC2=O)cc1)c1ccccn1` (centres unmarked) [BRL-49653, 5-{4-[2-(N-methyl-N-(2-pyridyl)amino)ethoxy]benzyl}thiazolidine-2,4-dione], for which the “islet cells invaded by lymphocytes in all mice” value in data set [1] (Example 4, 31 days) is listed as “less than 40%”. In addition, the “onset of autoimmune disease” value in data set [1] (setting [4]) was “suppresses the onset of autoimmune disease”. In data set [1] (setting [5]), the “Degree of lymphocyte invasion 0 to 40%” value is reported as 100% and the “Degree of lymphocyte invasion 40 to 60%” value was determined as 0%. In data set [2] (Example 2), the “inhibition of bone destruction as compared with the control group” value (from here on “inhibition … compared with the control group”) is “exhibited inhibition of bone destruction”. Further, in data set [2] (setting [6]), the “Bone Destruction Score (points)” value is 4.8 ± 1.2 points and the “Bone Destruction Inhibition Rate (%)” value came out at 35.1%.

Consider `CC(=NOCCOc1ccc(CC2SC(=O)NC2=O)cc1)c1ccc(-c2ccccn2)cc1` (centres unmarked) [Compound A, 5-[4-[2-[[[1-[4-(2-pyridyl)phenyl]ethylidene]amino]oxy]ethoxy]benzyl]thiazolidine-2,4-dione], for which the “islet cells invaded by lymphocytes in all mice” value in data set [1] (Example 4, 31 days) is “less than 40%”. Besides, in data set [1] (setting [4]), the “onset of autoimmune disease” value is reported as “suppresses the onset of autoimmune disease”. Further, in data set [1] (setting [5]), the “Degree of lymphocyte invasion 0 to 40%” value was 100% and the “Degree of lymphocyte invasion 40 to 60%” value is on record as 0%. Also, in data set [2] (setting [7]), the “Bone Destruction Score (points)” value was 6.6 ± 0.7 points and the “Bone Destruction Inhibition Rate (%)” value is 17.5%. For the same compound, the “bone destruction compared with the control group” value in data set [2] (Example 5) is recorded as “tended to be inhibited”.

In the case of `COc1ccc2nc(COc3ccc(CC4SC(=O)NC4=O)cc3)n(C)c2c1` (centres unmarked) [Compound B, 5-[4-(6-methoxy-1-methylbenzimidazol-2-ylmethoxy)benzyl]thiazolidine-2,4-dione], in data set [2] (setting [7]), the “Bone Destruction Score (points)” value is 6.6 ± 0.8 points and the “Bone Destruction Inhibition Rate (%)” value worked out at 17.5%. The “bone destruction compared with the control group” value in data set [2] (Example 5) is “tended to be inhibited”.

`CCc1ccc(CCOc2ccc(CC3SC(=O)NC3=O)cc2)nc1` (centres unmarked) [Pioglitazone, 5-{4-[2-(5-ethyl-2-pyridyl)ethoxy]benzyl}-2,4-thiazolidinedione]: in data set [1] (Example 3, 0.2% in feed (236 mg/kg/day), 38 days), the “degree of lymphocyte invasion into islet cells in all mice” value was not above 40%. Moreover, the “onset of autoimmune disease” value in data set [1] (Example 3, on the basis of Fig. 2 (plasma glucose levels) and Table 3) is “suppresses the onset of autoimmune disease”. In data set [1] (setting [8]), the “Degree of lymphocyte invasion 0 to 40%” value was 100% and the “Degree of lymphocyte invasion 40 to 60%” value is given as 0%. For the same compound, in data set [2] (Example 2), the “inhibition … compared with the control group” value is “exhibited inhibition of bone destruction”. Besides, in data set [2] (setting [6]), the “Bone Destruction Score (points)” value was 4.4 ± 1.0 points and the “Bone Destruction Inhibition Rate (%)” value is on record as 40.5%.

For the compound `Cc1c(C)c2c(c(C)c1O)CCC(C)(COc1ccc(CC3SC(=O)NC3=O)cc1)O2` (centres unmarked) [Troglitazone, 5-[4-(6-hydroxy-2,5,7,8-tetramethylchroman-2-ylmethoxy)benzyl]thiazolidine-2,4-dione], in data set [1] (Example 1, 0.2% in feed (240 mg/kg/day), 38 days), the “degree of lymphocyte invasion into islet cells in all mice” value is reported as not above 40%. The “onset of autoimmune disease” value in data set [1] (Example 1, on the basis of Fig. 1 (plasma glucose levels) and Table 1) is listed as “suppresses the onset of autoimmune disease”. In addition, in data set [1] (setting [9]), the “Degree of lymphocyte invasion 0 to 40%” value worked out at 100% and the “Degree of lymphocyte invasion 40 to 60%” value came out at 0%. The “inhibition … compared with the control group” value in data set [2] (Example 2) is reported as “significant inhibition of bone destruction”. In data set [2] (setting [6]), the “Bone Destruction Score (points)” value was 5.4 ± 0.2 points and the “Bone Destruction Inhibition Rate (%)” value was found to be 27.0%. Moreover, the survival entry in data set [3] is “All animals survived”.
